Measured values taken from PubChem BioAssay AID1963981 (Molecular Pharmacology Branch, DTP, NCI, 2024).

Tested on: 354836-022-R-J1-PDC multicell spheroid viability
Experiment: Anticancer human tumor 354836-022-R-J1-PDC patient-derived head and neck squamous cell carcinoma cell line growth inhibition [PI3K]
Settings: for IC50: curve of first compound; for viability, T/C: stronger effect = lower value
From the text: Combinatorial screen of targeted agents with the PI3K inhibitors inavolisib, alpelisib, duvelisib, and copanlisib in multi-cell type tumor spheroids
A high-throughput screen of multi-cell type tumor spheroids was designed to identify active combinations of targeted small molecules and PI3K pathway inhibitors. Complex spheroids include a stromal component modeled by human endothelial cells (HUVEC) and fibroblasts modeled by human mesenchymal stem cells (MSCs). The concentration ranges selected for each drug and investigational agent were based upon clinically achievable concentrations if the clinical Cmax of the agent was known.
Compounds. The drugs and investigational agents: inavolisib (NSC800729), alpelisib (NSC765974), duvelisib (NSC772469), copanlisib (NSC816437), ipatasertib (NSC767898), afuresertib (NSC778305), talazoparib (NSC767125), sapanisertib (NSC764658), selumetinib (NSC741078), tovorafenib (DAY101, NSC766906), vemurafenib (NSC761431), ravoxertinib (NSC781343), sotorasib (NSC818433), MRTX1133 (NSC 836407), abemaciclib (NSC 768073), palbociclib (NSC758247), venetoclax (NSC 766270), SY5609 (NSC837396), enzalutamide (NSC755605), and darolutamide (NSC825331), were obtained from the National Cancer Institute (NCI) Developmental Therapeutics Program Chemical Repository. The FDA-approved anticancer drug set is available from the NCI Developmental Therapeutics Program. […] The stock solutions were prepared in dimethyl sulfoxide (DMSO, Sigma-Aldrich, St. Louis, MO, cat. D2650) at 800-fold the tested concentration and stored at -70 degrees C prior to their use. All drugs and investigational agents were tested over a range starting from a high concentration at or near the clinical Cmax and decreasing in half-log increments. If the clinical Cmax for an agent had not been determined, the highest concentration tested was 10 microM.
Cell Culture. All cells were maintained in an incubator at 37 degrees C and 5% CO2 with 95% humidity. The PDC lines were cultured according to standard operating procedures established by the NCI PDMR (https://pdmr.cancer.gov/sops/default.htm). All PDCs were thawed and cultured in Matrigel-coated flasks prepared with a working solution of 1X Ham's F-12 nutrient mix, without supplementation (Invitrogen, Waltham, MA, cat. 11765054), 100 U/mL penicillin-streptomycin (Invitrogen, cat. 15140122), and 2.5% Matrigel (Corning Inc., Corning, NY, cat. 354248) for the first three passages. The 354836-022-R-J1-PDC, 475296-252-R-J1-PDC, and 997726-040-R-J2-PDC lines were cultured in 6A media, which includes advanced DMEM/F-12 (Thermo Fisher Scientific, cat. 12634028), 10 mM HEPES (Thermo Fisher Scientific, cat. 15630080), 1X GlutaMAX supplement (Thermo Fisher Scientific, cat. 35050061), 0.1 mg/mL primocin (InvivoGen, San Diego, CA, cat. ant-pm-2), 10% defined fetal bovine serum, heat inactivated (HyClone Laboratories Inc., Logan, UT, cat. SH30070.03HI), 50% L-WRN conditioned media (ATCC, cat. CRL-3276), 1.25 mM N-Acetyl-L-cysteine (Sigma-Aldrich, cat. A9165), 10 mM nicotinamide (Sigma-Aldrich, cat. N0636), 1X B-27 supplement (Thermo Fisher Scientific, cat. 17504044), 1X N-2 supplement (Thermo Fisher Scientific, cat. 17502048), and 10 microM Y-27632 dihydrochloride (Tocris Bioscience, Bristol, United Kingdom, cat. 1254). The 624824-186-R-J2-PDC line was cultured in 6C/Colon 1B media, which includes all 6A media components plus 50 ng/mL human EGF recombinant protein (Thermo Fisher Scientific, cat. PHG0311). […]

[1] = second compound 0.00316 µM, first compound 0.0316 µM
[2] = second compound 0.00316 µM, first compound 0.1 µM
[3] = second compound 0.00316 µM, first compound 0.316 µM
[4] = second compound 0.00316 µM, first compound 1 µM
[5] = second compound 0.00316 µM, first compound 3.16 µM
[6] = second compound 0.00316 µM, first compound 10 µM
[7] = second compound 0.01 µM, first compound 0.0316 µM
[8] = second compound 0.01 µM, first compound 0.1 µM
[9] = second compound 0.01 µM, first compound 0.316 µM
[10] = second compound 0.01 µM, first compound 1 µM
[11] = second compound 0.01 µM, first compound 3.16 µM
[12] = second compound 0.01 µM, first compound 10 µM
[13] = second compound 0.0316 µM, first compound 0.0316 µM
[14] = second compound 0.0316 µM, first compound 0.1 µM
[15] = second compound 0.0316 µM, first compound 0.316 µM
[16] = second compound 0.0316 µM, first compound 1 µM
[17] = second compound 0.0316 µM, first compound 3.16 µM
[18] = second compound 0.0316 µM, first compound 10 µM
[19] = second compound 0.1 µM, first compound 0.0316 µM
[20] = second compound 0.1 µM, first compound 0.1 µM
[21] = second compound 0.1 µM, first compound 0.316 µM
[22] = second compound 0.1 µM, first compound 1 µM
[23] = second compound 0.1 µM, first compound 3.16 µM
[24] = second compound 0.1 µM, first compound 10 µM
[25] = second compound 0.316 µM, first compound 0.0316 µM
[26] = second compound 0.316 µM, first compound 0.1 µM
[27] = second compound 0.316 µM, first compound 0.316 µM
[28] = second compound 0.316 µM, first compound 1 µM
[29] = second compound 0.316 µM, first compound 3.16 µM
[30] = second compound 0.316 µM, first compound 10 µM
[31] = second compound 1 µM, first compound 0.0316 µM
[32] = second compound 1 µM, first compound 0.1 µM
[33] = second compound 1 µM, first compound 0.316 µM
[34] = second compound 1 µM, first compound 1 µM
[35] = second compound 1 µM, first compound 3.16 µM
[36] = second compound 1 µM, first compound 10 µM
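Further: spheroids exposed to agents for seven days before the viability read.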

SMILES: CC1(C)CCC(CN2CCN(c3ccc(C(=O)NS(=O)(=O)c4ccc(NCC5CCOCC5)c([N+](=O)[O-])c4)c(Oc4cnc5[nH]ccc5c4)c3)CC2)=C(c2ccc(Cl)cc2)C1 + CC(Nc1ccc2c(c1)OCCn1cc(N3C(=O)OCC3C(F)F)nc1-2)C(N)=O
- IC50 (second compound 0.00316 µM): 4.39 µM
- IC50 (second compound 0.01 µM): 4 µM
- IC50 (second compound 0.0316 µM): 3.5 µM
- IC50 (second compound 0.1 µM): 4.25 µM
- IC50 (second compound 0.316 µM): 3.35 µM
- IC50 (second compound 1 µM): 2.32 µM
- viability, T/C [1]: 96.5%
- viability, T/C [2]: 96.9%
- viability, T/C [3]: 87.7%
- viability, T/C [4]: 70.5%
- viability, T/C [5]: 74.6%
- viability, T/C [6]: 8.4%
- viability, T/C [7]: 106%
- viability, T/C [8]: 91%
- viability, T/C [9]: 95.2%
- viability, T/C [10]: 81.1%
- viability, T/C [11]: 62.8%
- viability, T/C [12]: 9.3%
- viability, T/C [13]: 89.1%
- viability, T/C [14]: 103%
- viability, T/C [15]: 92.3%
- viability, T/C [16]: 99.5%
- viability, T/C [17]: 54%
- viability, T/C [18]: 8.28%
- viability, T/C [19]: 81.4%
- viability, T/C [20]: 81.6%
- viability, T/C [21]: 94.2%
- viability, T/C [22]: 85.5%
- viability, T/C [23]: 63.4%
- viability, T/C [24]: 11.4%
- viability, T/C [25]: 71%
- viability, T/C [26]: 69.2%
- viability, T/C [27]: 72.8%
- viability, T/C [28]: 69.8%
- viability, T/C [29]: 52%
- viability, T/C [30]: 10.8%
- viability, T/C [31]: 62%
- viability, T/C [32]: 56.2%
- viability, T/C [33]: 50.2%
- viability, T/C [34]: 64.7%
- viability, T/C [35]: 47%
- viability, T/C [36]: 10.2%

SMILES: C[C@@H](NC(=O)c1ncnc(N)c1Cl)c1ncc(C(=O)Nc2cc(C(F)(F)F)c(Cl)cn2)s1 + CC(Nc1ccc2c(c1)OCCn1cc(N3C(=O)OCC3C(F)F)nc1-2)C(N)=O
- IC50 (second compound 0.00316 µM): > 10 µM
- IC50 (second compound 0.01 µM): > 10 µM
- IC50 (second compound 0.0316 µM): > 10 µM
- IC50 (second compound 0.1 µM): > 10 µM
- IC50 (second compound 0.316 µM): > 10 µM
- IC50 (second compound 1 µM): > 10 µM
- viability, T/C [1]: 98.4%
- viability, T/C [2]: 92.4%
- viability, T/C [3]: 103%
- viability, T/C [4]: 109%
- viability, T/C [5]: 107%
- viability, T/C [6]: 67.5%
- viability, T/C [7]: 108%
- viability, T/C [8]: 90.9%
- viability, T/C [9]: 91.4%
- viability, T/C [10]: 104%
- viability, T/C [11]: 110%
- viability, T/C [12]: 64.1%
- viability, T/C [13]: 92.1%
- viability, T/C [14]: 93.1%
- viability, T/C [15]: 102%
- viability, T/C [16]: 111%
- viability, T/C [17]: 103%
- viability, T/C [18]: 71.9%
- viability, T/C [19]: 82.2%
- viability, T/C [20]: 93.8%
- viability, T/C [21]: 94.9%
- viability, T/C [22]: 92.3%
- viability, T/C [23]: 88.5%
- viability, T/C [24]: 71.6%
- viability, T/C [25]: 74.4%
- viability, T/C [26]: 75.9%
- viability, T/C [27]: 82.9%
- viability, T/C [28]: 84.6%
- viability, T/C [29]: 88.1%
- viability, T/C [30]: 58.1%
- viability, T/C [31]: 63%
- viability, T/C [32]: 62.2%
- viability, T/C [33]: 62.9%
- viability, T/C [34]: 65.2%
- viability, T/C [35]: 74.5%
- viability, T/C [36]: 53.6%
